Measured values published in publication PMC9017349, “Spiropyrimidinetriones: a Class of DNA Gyrase Inhibitors with Activity against Mycobacterium tuberculosis and without Cross-Resistance to Fluoroquinolones” (Antimicrobial Agents and Chemotherapy, 2022).
Values after ≈ are worked out from the molar mass of the structure shown. Like-named read-outs stand apart in the source and are kept apart here.

Test system: M. tuberculosis H37Rv
Assay: MIC against M. tuberculosis H37Rv in 7H9 medium with various supplements
Type: cell-based, Mycobacterium tuberculosis
Conditions: for MIC: Mycobacterium tuberculosis, H37RV; for fold more active than zoliflodacin against M. tuberculosis: H37Rv, across the MIC media
[1] = read-out: MIC, DPPC/Chol/BSA/TX

SMILES | MIC (read-out: MIC, ADC/GLU/TW) [µM] | MIC (read-out: MIC, DPPC/CAS/TX) [µM] | MIC [1] [µM] | MIC (read-out: MIC, GLU/BSA/TX) [µM] | MIC (read-out: MIC, GLU/CAS/TX) [µM] | fold more active than zoliflodacin against M. tuberculosis
CC1CN2c3c(cc4c(N5C(=O)OCC5CCO)noc4c3F)CC3(C(=O)NC(=O)NC3=O)C2C(C)O1 (centres unmarked) [Compound 1] | 3.9 (≈ 2.02 µg/mL) | 6.2 (≈ 3.21 µg/mL) | 9.4 (≈ 4.86 µg/mL) | 9.4 (≈ 4.86 µg/mL) | 4.7 (≈ 2.43 µg/mL) | –
CC1CN2c3c(cc4c(N5C(=O)OCC5CO)noc4c3F)CC3(C(=O)NC(=O)NC3=O)C2C(C)O1 (centres unmarked) [Compound 2] | 2 (≈ 1.01 µg/mL) | 6.2 (≈ 3.12 µg/mL) | 4.7 (≈ 2.37 µg/mL) | 6.2 (≈ 3.12 µg/mL) | 3.1 (≈ 1.56 µg/mL) | –
CC1CN2c3c(cc4c(N5CC(CO)OC5=O)noc4c3Cl)CC3(C(=O)NC(=O)NC3=O)C2C(C)O1 (centres unmarked) [Compound 3] | 2 (≈ 1.04 µg/mL) | 6.2 (≈ 3.22 µg/mL) | 4.7 (≈ 2.44 µg/mL) | 4.7 (≈ 2.44 µg/mL) | 2.3 (≈ 1.2 µg/mL) | –
CC1CN2c3c(cc4c(N5C(=O)OCC5CCCO)noc4c3Cl)CC3(C(=O)NC(=O)NC3=O)C2C(C)O1 (centres unmarked) [Compound 4] | 4.8 (≈ 2.63 µg/mL) | 12 (≈ 6.58 µg/mL) | 12 (≈ 6.58 µg/mL) | 12 (≈ 6.58 µg/mL) | 9.4 (≈ 5.15 µg/mL) | –
C[C@@H]1CN(c2noc3c(F)c4c(cc23)CC2(C(=O)NC(=O)NC2=O)[C@H]2[C@H](C)O[C@H](C)CN42)C(=O)O1 [Compound 5] | 2 (≈ 0.975 µg/mL) | 12 (≈ 5.85 µg/mL) | 6.2 (≈ 3.02 µg/mL) | 9.4 (≈ 4.58 µg/mL) | 4.7 (≈ 2.29 µg/mL) | about 2 fold
CC1CN2c3c(cc4c(N5C(=O)OC6COCC65)noc4c3F)CC3(C(=O)NC(=O)NC3=O)C2C(C)O1 (centres unmarked) [Compound 6] | 0.98 (≈ 0.505 µg/mL) | 4.7 (≈ 2.42 µg/mL) | 2.3 (≈ 1.19 µg/mL) | 3.1 (≈ 1.6 µg/mL) | 1.6 (≈ 0.825 µg/mL) | –
CC1CN2c3c(cc4c(N5C(=O)OC(C)C5C)noc4c3F)CC3(C(=O)NC(=O)NC3=O)C2C(C)O1 (centres unmarked) [Compound 7] | 3.9 (≈ 1.96 µg/mL) | 37 (≈ 18.6 µg/mL) | 19 (≈ 9.53 µg/mL) | 25 (≈ 12.5 µg/mL) | 12 (≈ 6.02 µg/mL) | –
COCC1COC(=O)N1c1noc2c(F)c3c(cc12)CC1(C(=O)NC(=O)NC1=O)C1C(C)OC(C)CN31 (centres unmarked) [Compound 8] | 7.8 (≈ 4.04 µg/mL) | 25 (≈ 12.9 µg/mL) | 12 (≈ 6.21 µg/mL) | 25 (≈ 12.9 µg/mL) | 19 (≈ 9.83 µg/mL) | –
CC1CN2c3c(cc4c(N5C(=O)OCC5c5ncnn5C)noc4c3F)CC3(C(=O)NC(=O)NC3=O)C2C(C)O1 (centres unmarked) [Compound 9] | 16 (≈ 8.87 µg/mL) | > 50 | > 50 | > 50 | 37 (≈ 20.5 µg/mL) | –
CC1CN2c3c(cc4c(N5C(=O)OC6COCCC65)noc4c3F)CC3(C(=O)NC(=O)NC3=O)C2C(C)O1 (centres unmarked) [Compound 10] | 3.9 (≈ 2.06 µg/mL) | 12 (≈ 6.35 µg/mL) | 12 (≈ 6.35 µg/mL) | 12 (≈ 6.35 µg/mL) | 6.2 (≈ 3.28 µg/mL) | –
COCC1[C@@H](C)OC(=O)N1c1noc2c(F)c3c(cc12)CC1(C(=O)NC(=O)NC1=O)[C@H]1[C@H](C)O[C@H](C)CN31 (some centres unmarked) [Compound 11] | 31 (≈ 16.5 µg/mL) | > 50 | > 50 | > 50 | > 50 | –
CC1CN2c3c(cc4c(N5CC(c6ccccn6)OC5=O)noc4c3F)CC3(C(=O)NC(=O)NC3=O)C2C(C)O1 (centres unmarked) [Compound 12] | > 50 | > 50 | > 50 | > 50 | > 50 | –
CC1CN2c3c(cc4c(N5C(=O)OC6CCOCC65)noc4c3F)CC3(C(=O)NC(=O)NC3=O)C2C(C)O1 (centres unmarked) [Compound 13] | 1.9 (≈ 1.01 µg/mL) | 12 (≈ 6.35 µg/mL) | 4.7 (≈ 2.49 µg/mL) | 6.2 (≈ 3.28 µg/mL) | 4.7 (≈ 2.49 µg/mL) | –
C[C@@H]1CN2c3c(cc4c(-n5ncnc5NCCO)noc4c3F)CC3(C(=O)NC(=O)NC3=O)[C@H]2[C@H](C)O1 [Compound 14] | 0.24 (≈ 0.123 µg/mL) | 1.6 (≈ 0.823 µg/mL) | 1.2 (≈ 0.617 µg/mL) | 1.2 (≈ 0.617 µg/mL) | 0.6 (≈ 0.309 µg/mL) | 16 fold
C[C@@H]1CN2c3c(cc4c(-n5ncnc5NCCN(C)C)noc4c3F)CC3(C(=O)NC(=O)NC3=O)[C@H]2[C@H](C)O1 [Compound 15] | 2 (≈ 1.08 µg/mL) | 1.6 (≈ 0.866 µg/mL) | 3.1 (≈ 1.68 µg/mL) | 1.6 (≈ 0.866 µg/mL) | 2.3 (≈ 1.25 µg/mL) | –
